Calls of active or inactive are those of the source.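 Rule for the calls: active = malaria parasite growth inhibition of at least 50% at 10 µM in any single replicate well; inactive = under 50% inhibition in every replicate.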
Each molecule was assayed on P. falciparum 3D7 in RBCs, 3H-hypoxanthine incorporation, 48 h (assay: P. falciparum growth inhibition in erythrocytes, late-stage follow-up, P. falciparum M17LAP inhibitor project, cell-based, 3H-hypoxanthine radiolabel, RBCs, Set 2 (AID 743274)). Details: at 10 µM; active compounds read high.

SMILES	inhibition
N[C@@H](Cc1c[nH]c2ccccc12)C(=O)NO	2.5% (inactive)
CCCCOc1ccc(CNc2c(N(C)O)c(=O)c2=O)cc1	63%
O=C(Cc1ccc2c(c1)CCCC2)NO	82.5%
CCCCOc1ccc(CC(=O)N(C)O)cc1	58%
O=C(NO)c1ccc2ccccc2c1	53.5%
CCC(C)Oc1ccc(CC(=O)NO)cc1 (stereo unspecified)	71%
CCCCOc1cccc(CC(=O)OC)c1	3% (inactive)
CCCCOc1ccc(CNc2c(N(O)Cc3ccccc3)c(=O)c2=O)cc1	0% (inactive)
CCOc1ccc(CC(=O)NO)cc1	70%
COc1ccc(CC(=O)NO)cc1	50%
CN(O)C(=O)Cc1ccc(OCc2ccccc2)cc1	15.5% (inactive)
CCCCOc1ccc(C(C)C(=O)NO)cc1 (stereo unspecified)	59.5%
CC(C)C[C@H](N)C(=O)NO	1% (inactive)
CCCCOc1cccc(CC(=O)NO)c1	32.5% (inactive)
CCCCOc1ccc(CCC(=O)NO)cc1	26% (inactive)
CC(C)COc1ccc(CC(=O)NO)cc1	69%
CCCOc1ccc(CC(=O)NO)cc1	74%
CCCCOc1ccc(CC(=O)O)cc1	0% (inactive)

SMILES	inhibition
NC(N)=NCCC[C@H](N)C(=O)NO	0% (inactive)
O=C(Cc1ccc(OCc2ccccc2)cc1)NO	93%
CCCCOc1ccc(C(=O)NO)cc1	73.5%
O=C(Cc1ccc2ccccc2c1)NO	52%
Cc1ccc(CC(=O)NO)cc1	53%
CCCCOc1ccc(C(C)C(=O)O)cc1 (stereo unspecified)	0% (inactive)
O=C(Cc1cccc2ccccc12)NO	14.5% (inactive)
CCCCOc1ccc(CN(O)C(C)=O)cc1	19.5% (inactive)
O=C(Cc1ccc(Oc2ccccc2)cc1)NO	38.5%
CCCCCCCCCC(=O)NO	53%
CC(C)(C(=O)NO)c1ccccc1	0% (inactive)
COc1ccc(OCCC(=O)NO)cc1	9% (inactive)
CCCCOc1ccc(C(C)(C)C(=O)NO)cc1	12% (inactive)
CCCCc1ccc(CC(=O)NO)cc1	84.5%
O=C(NO)c1cccc2ccccc12	0% (inactive)
COc1ccc(CCCC(=O)NO)cc1	15.5% (inactive)
CCCCOc1ccc(C(C)C(=O)OC)cc1 (stereo unspecified)	4.5% (inactive)
CCCCOc1ccc(CN(O)C(=O)c2ccccc2)cc1	59.5%
